Measurements as given in PubChem BioAssay AID2021 (NMMLSC, 2009).
Active and inactive are the calls of the source. How the calls were made is not given here.

Target: Cell division control protein 42 homolog (Homo sapiens) (UniProt P60953)
Experiment: Cdc42 activated mutant GTP-binding inhibitors, SAR follow-up, biochemical, bead-based multiplex flow cytometry, additional SAR set (AID 2021)
Settings: fluorescent GTP binding; for Ki: measured here: Ki derived from EC50

Chain of Cell division control protein 42 homolog (Homo sapiens) (P60953 whole entry, looked up): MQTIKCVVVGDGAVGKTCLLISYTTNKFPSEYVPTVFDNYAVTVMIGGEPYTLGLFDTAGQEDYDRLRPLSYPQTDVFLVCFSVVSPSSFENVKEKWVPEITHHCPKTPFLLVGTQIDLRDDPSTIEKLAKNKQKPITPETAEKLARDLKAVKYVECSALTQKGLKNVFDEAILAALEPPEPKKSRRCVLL

| SMILES | EC50 | Ki [µM] |
| --- | --- | --- |
| O=Nc1c(-c2c(O)[nH]c3c(Cl)cccc23)[nH]c2ccccc12 | > 30 µM (inactive) | – |
| O=[N+]([O-])c1ccc(C#Cc2ccccc2)cc1 | 13.7 µM | 2.12 |
| O=C1C(c2c(O)[nH]c3c(F)cccc23)=Nc2ccccc21 | > 30 µM (inactive) | – |
| CC(=O)Oc1ccccc1C(=O)O | > 30 µM (inactive) | – |
| N#Cc1c(-c2ccc(Cl)cc2)c(C(=O)c2ccccc2)n(S(=O)(=O)c2ccc([N+](=O)[O-])cc2)c1N | inactive | 0.93 |
| COC(=O)c1ccc(C(=O)C#Cc2ccccc2)cc1 | > 30 µM (inactive) | – |
| O=C(C#Cc1ccccc1)c1ccc([N+](=O)[O-])cc1 | > 30 µM (inactive) | – |
| O=Nc1c(-c2c(O)[nH]c3ccc(Br)cc23)[nH]c2ccccc12 | > 30 µM (inactive) | – |
| CC(C(=O)O)c1cccc(Oc2ccccc2)c1 (stereo not given) | > 30 µM (inactive) | – |
| O=C(C#Cc1ccccc1)c1cccnc1 | > 30 µM (inactive) | – |
| COc1ccc(S(=O)(=O)n2c(N)c(C#N)c(-c3cc(Br)c(OC)c(OC)c3)c2C(=O)c2ccccc2)cc1 | > 30 µM (inactive) | – |
| COc1ccc(S(=O)(=O)n2c(N)c(C#N)c(-c3cncc(Br)c3)c2C(=O)c2ccccc2)cc1 | 9.98 µM | 1.54 |
| O=Nc1c(-c2c(O)[nH]c3c(F)cccc23)[nH]c2ccccc12 | > 30 µM (inactive) | – |
| COc1ccc(C(=O)C#Cc2ccccc2)cc1 | > 30 µM (inactive) | – |
| O=C(C#Cc1ccccc1)c1ccc(F)cc1 | inactive | 9.15 |
| COc1cc(-c2c(C#N)c(N)n(S(=O)(=O)c3c(C(C)C)cc(C(C)C)cc3C(C)C)c2C(=O)c2ccccc2)cc(OC)c1OC | > 30 µM (inactive) | – |
| O=C(C#Cc1ccccc1)c1ccc(OC(F)(F)F)cc1 | > 30 µM (inactive) | – |
| O=Nc1c(-c2c(O)[nH]c3c(Br)cccc23)[nH]c2ccccc12 | inactive | 8.52 |

Second part, the compound after the results:

| EC50 | Ki [µM] | SMILES |
| --- | --- | --- |
| > 30 µM (inactive) | – | O=Nc1c(-c2c(O)[nH]c3ccccc23)[nH]c2ccccc12 |
| > 30 µM (inactive) | – | O=C1C(c2c(O)[nH]c3ccc(Br)cc23)=Nc2ccccc21 |
| inactive | 7.52 | CSc1ccc(/C=C2/C(C)=C(CC(=O)O)c3cc(F)ccc32)cc1 |
| inactive | 2.88 | CCCCS(=O)(=O)n1c(N)c(C#N)c(-c2cc(OC)c(OC)c(OC)c2)c1C(=O)c1ccccc1 |
| > 30 µM (inactive) | – | O=C1Nc2cccc(Br)c2/C1=C1/Cc2ccccc2C1=O |
| > 30 µM (inactive) | – | O=C1C(c2c(O)[nH]c3c(Br)cccc23)=Nc2ccccc21 |
| > 30 µM (inactive) | – | O=C1Nc2c(Br)cccc2/C1=C1/Cc2ccccc2C1=O |
| > 30 µM (inactive) | – | CC1=C(CC(=O)O)c2cc(F)ccc2/C1=C/c1ccc(S(C)=O)cc1 (stereo not given) |
| > 30 µM (inactive) | – | O=C1N=c2ccccc2=C1c1[nH]c(=S)[nH]c1O |
| inactive | 0.99 | CC(C)Cc1ccc([C@H](C)C(=O)O)cc1 |
| > 30 µM (inactive) | – | O=C(C#Cc1ccccc1)c1ccc(Cl)cc1 |
| > 30 µM (inactive) | – | N#Cc1ccc(C(=O)C#Cc2ccccc2)cc1 |
| > 30 µM (inactive) | – | O=C(C#Cc1ccccc1)c1ccccc1 |
| > 30 µM (inactive) | – | O=C1C(c2c(O)[nH]c3c(Cl)cccc23)=Nc2ccccc21 |
| > 30 µM (inactive) | – | O=C1C(c2c(O)[nH]c3ccccc23)=Nc2ccccc21 |
| inactive | 2.87 | COc1ccc(-c2c(C#N)c(N)n(S(C)(=O)=O)c2C(=O)c2ccccc2)cc1Br |
| > 30 µM (inactive) | – | CC(C(=O)O)c1cccc(C(=O)c2ccccc2)c1 (stereo not given) |
| > 30 µM (inactive) | – | O=C(C#Cc1ccccc1)c1ccccc1[N+](=O)[O-] |
| > 30 µM (inactive) | – | O=C1Nc2ccccc2/C1=C1/Cc2ccccc2C1=O |
| > 30 µM (inactive) | – | COc1ccc2cc(CC(=O)O)ccc2c1 |
| inactive | 0.81 | O=C1N=c2ccccc2=C1c1[nH]c(=O)[nH]c1O |
| > 30 µM (inactive) | – | COc1ccc(S(=O)(=O)n2c(N)c(C#N)c(-c3ccccc3)c2C(=O)c2ccc(Br)cc2)cc1 |
